The source of these data is paper PMC7534897 (Bioorganic & Medicinal Chemistry Letters, 2020).

Assay [1] has as its system EV-71A. As to conditions: cited from earlier work.
For assay [2], the system named is EV-A71. The conditions noted are these: read-out: EC50, EV-A71; cited from earlier work.
For assay [3], the system named is Enterovirus 71 (Tainin/4643/98 strain). The assay is described as follows: Inhibition of EV-A71 replication in Vero 76 cells. The class given is cell-based, Enterovirus A71. The conditions noted are these: for EC50 / pEC50: Enterovirus A; for pEC50: Vero 76, read-out: Visual EC50.
In assay [4] the target is A1 adenosine receptor. The conditions noted are these: cited from earlier work.
The test system of assay [5] is coxsackie virus B3, enterovirus 68 and poliovirus 1. The experiment in a line: organism not typed. It is filed as cell-based. As to conditions: read-out: EC50 values, range over three viruses.
For assay [6], the target named is A3 adenosine receptor. The conditions noted are these: read-out: Ki, A3 adenosine receptor; binds as an agonist; cited from earlier work.
For assay [7], the system named is Enterovirus 68 (US/KY/14–18953 strain). The assay is described as follows: Inhibition of enterovirus 68 in RD cells. The class given is cell-based. The conditions noted are these: Enterovirus D, read-out: EC50/90 values against enterovirus 68, range.

Structures are written as SMILES. pEC50, pIC50, pKi: −log10 of the molar value. Values after ≈ are worked out from the molar mass of the structure shown. Like-named read-outs stand apart in the source and are kept apart here. Where only a bound is given, the exact number is not on record here.

In the case of `NC(=O)c1ncn([C@@H]2O[C@H](CO)[C@@H](O)[C@H]2O)n1` [Compound 5, ribavirin], in assay [1], the “IC50, EV-71A viral yield in infected cells” value is 65 µg/mL (≈ 266 µM). Also, in assay [1] (read-out: IC50, EV-71A viral yield in infected cells), the negative logarithm of the IC50 (pIC50) is 3.58.
For the compound `OC[C@H]1O[C@@H](n2cnc3c(NCc4ccccc4)ncnc32)[C@H](O)[C@@H]1O` [Compound 6, N ^6-benzyl-adenosine], the pEC50 in assay [2] is 5.30.
As for `CCOC(=O)c1ccc(OCCC2CCN(c3ccc(C)nn3)CC2)cc1` [Compound 8, Pirodavir, reference compound], the EC50 lay in the range of 0.056 to 0.22 µg/mL in assay [3] (Vero 76, read-out: EC50 values of pirodavir, range (neutral red)) and 0.036 to 0.32 µg/mL in assay [3] (Vero 76, read-out: EC50 values of pirodavir, range (visual)).
Consider `NC(=O)c1ncn([C@H]2[C@H](O)[C@H](O)[C@]3(CO)C[C@H]23)n1` [Compound 9], for which the “Activity against EV-A71 in words” value in assay [3] (at 50 µM, higher concentrations not tested) was “inactive”.
For `OC[C@H]1O[C@@H](n2cnc3c(NC(C4CC4)C4CC4)ncnc32)[C@H](O)[C@@H]1O` [Compound 10], the “Activity against EV-A71 in words” value in assay [3] was “inactive”.
Consider `OC[C@H]1O[C@@H](n2cnc3c(NC(C4CCC4)C4CCC4)ncnc32)[C@H](O)[C@@H]1O` [Compound 11], for which the pKi in assay [4] (read-out: Ki, A1 receptor) is > 8.00. For the same compound, in assay [3], the “Activity against EV-A71 in words” value was “inactive”.
With `OC[C@H]1O[C@@H](n2cnc3c(NC(C4CCC4)C4CCC4)nc(Cl)nc32)[C@H](O)[C@@H]1O` [Compound 12], the negative logarithm of the Ki (pKi) in assay [4] (read-out: Ki, A1 receptor) was > 8.00.
For the compound `OC[C@@]12C[C@@H]1[C@@H](n1cnc3c(NC(C4CC4)C4CC4)nc(Cl)nc31)[C@H](O)[C@@H]2O` [Compound 16], the “Activity against EV-A71 in words” value in assay [3] is reported as “Intermediate potency”.
With `CC(C)[C@@H](Nc1nc(Cl)nc2c1ncn2[C@H]1[C@H](O)[C@H](O)[C@]2(CO)C[C@H]12)C1CC1` [Compound 17], the pKi in assay [4] (read-out: Ki, A1 adenosine receptor, binds as an agonist) is 6.99; in assay [6] it was 5.91. In assay [5], the pEC50 is 4.49 to 4.80.
On to `CSc1nc(N[C@H](C(C)C)C2CC2)c2ncn([C@H]3[C@H](O)[C@H](O)[C@]4(CO)C[C@H]34)c2n1` [Compound 20, (1R,2R,3S,4R,5S)-4-(6-((1-Cyclopropyl-2-methylpropyl)amino)-2-(methylthio)-9H-purin-9-yl)-1-(hydroxymethyl)bicyclo[3.1.0]hexane-2,3-diol], for which, in assay [3], the pEC50 was < 4.00.
Take `CC(C)[C@H](Nc1nc(Cl)nc2c1ncn2[C@H]1[C@H](O)[C@H](O)[C@]2(CO)C[C@H]12)C1CC1` [Compound 21]: in assay [3], the “Activity against EV-A71 in words” value is on record as “Intermediate potency”.
Consider `CC[C@@H](Nc1nc(SC)nc2c1ccn2[C@H]1[C@H](O)[C@H](O)[C@]2(CO)C[C@H]12)C1CC1` [Compound 26], for which, in assay [3], the pEC50 is 4.80.
The same measure, in the same setting: the value for `CC[C@H](Nc1nc(Cl)nc2c1ncn2[C@H]1[C@H](O)[C@H](O)[C@]2(CO)C[C@H]12)C1CC1` [Compound 27] was 4.80.
For the compound `OC[C@@]12C[C@@H]1[C@@H](n1cnc3c(NC(C4CCC4)C4CCC4)nc(Cl)nc31)[C@H](O)[C@@H]2O` [Compound 30], the “Activity against EV-A71 in words” value in assay [3] is on record as “prevented inhibition”.
As for `O[C@@H]1[C@H](O)[C@@H]2C[C@@H]2[C@H]1n1cnc2c(NC(C3CC3)C3CC3)nc(Cl)nc21` [Compound 31], the pEC50 in assay [7] is 4.80 to 5.10. The “SI (selectivity index) at EV-A71” value in assay [3] (visual and neutral red methods) is reported as ≥ 10.
With `O[C@@H]1[C@H](O)[C@@H]2C[C@@H]2[C@H]1n1cnc2c(NC(C3CCC3)C3CCC3)nc(Cl)nc21` [Compound 42], in assay [3], the pEC50 is < 4.80.
Take `CCOC(=O)[C@@]12C[C@@H]1[C@@H](n1cnc3c(NC(C4CC4)C4CC4)nc(Cl)nc31)[C@H](O)[C@@H]2O` [Compound 44]: the “Activity against EV-A71 in words” value in assay [3] is “inactive”.
For `CC(C)[C@@H](Nc1nc(Cl)nc2c1ncn2[C@H]1[C@H](O)[C@H](O)[C@]2(CF)C[C@H]12)C1CC1` [Compound 48, (1S,2R,3S,4R,5S)-4-(2-Chloro-6-((1-cyclopropyl-2-methylpropyl)amino)-9H-purin-9-yl)-1-(fluoromethyl)bicyclo[3.1.0]hexane-2,3-diol], in assay [7], the pEC50 was 4.80 to 5.10. For the same compound, in assay [3], the “Activity against EV-A71 in words” value is reported as “intermediate potency” and the pEC50 was 5.44.
As for `CC(C)[C@@H](Nc1nc(Cl)nc2c1ncn2[C@H]1[C@H](O)[C@H](O)[C@]2(CCl)C[C@H]12)C1CC1` [Compound 49, (1S,2R,3S,4R,5S)-4-(2-Chloro-6-((1-cyclopropyl-2-methylpropyl)amino)-9H-purin-9-yl)-1-(chloromethyl)bicyclo[3.1.0]hexane-2,3-diol], in assay [3], the “Activity against EV-A71 in words” value is “intermediate potency”.
Same read-out and setting: the value for `CSC[C@@]12C[C@@H]1[C@@H](n1cnc3c(N[C@H](C(C)C)C4CC4)nc(Cl)nc31)[C@H](O)[C@@H]2O` [Compound 50, (1S,2R,3S,4R,5S)-4-(2-Chloro-6-((1-cyclopropyl-2-methylpropyl)amino)-9H-purin-9-yl)-1-((methylthio)methyl)bicyclo[3.1.0]hexane-2,3-diol] was “reduced inhibition”.
Same read-out and setting: in the case of `CC(C)[C@@H](Nc1nc(Cl)nc2c1ncn2[C@H]1[C@H](O)[C@H](O)[C@]2(CN=[N+]=[N-])C[C@H]12)C1CC1` [Compound 51, (1R,2R,3S,4R,5S)-1-(Azidomethyl)-4-(2-chloro-6-((1-cyclopropyl-2-methylpropyl)amino)-9H-purin-9-yl)bicyclo[3.1.0]hexane-2,3-diol] it was “intermediate potency”.
On the same count and under the same terms, in the case of `CC(C)[C@@H](Nc1nc(Cl)nc2c1ncn2[C@H]1[C@H](O)[C@H](O)[C@]2(CN)C[C@H]12)C1CC1` [Compound 52, (1R,2R,3S,4R,5S)-1-(Aminomethyl)-4-(2-chloro-6-((1-cyclopropyl-2-methylpropyl)amino)-9H-purin-9-yl)bicyclo[3.1.0]hexane-2,3-diol] it was “reduced inhibition”.

One may read the pIC50 as −log10 of the IC50, conventionally taken in molar units. The EC50 is the midpoint of the concentration-response curve. Broadly, the pKi is −log10 of the Ki, conventionally taken in molar units.
